target: T1, active p38 alpha enzyme (Upstate Biotechnology) (Homo sapiens, UniProt Q16539); assay: p38α biochemical assay (ATP turnover, luminescent detection, Cambrex PKlight); details: p38α biochemical assay, Table 1 Biological Activity
T1 construct: purchased Upstate Biotechnology
Outline: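 Active p38α phosphorylates MapkapK2 whole protein with 1.4 uM final ATP, 2 h at 30C, in Tris/MOPS buffer with MgCl2, CaCl2, EGTA, EDTA, glycerol, β-mercaptoethanol and 1 mg/ml BSA. Compounds pin-delivered from DMSO; total ATP turnover read by luminescence after PKlight addition.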

T1 sequence (Q16539 whole entry): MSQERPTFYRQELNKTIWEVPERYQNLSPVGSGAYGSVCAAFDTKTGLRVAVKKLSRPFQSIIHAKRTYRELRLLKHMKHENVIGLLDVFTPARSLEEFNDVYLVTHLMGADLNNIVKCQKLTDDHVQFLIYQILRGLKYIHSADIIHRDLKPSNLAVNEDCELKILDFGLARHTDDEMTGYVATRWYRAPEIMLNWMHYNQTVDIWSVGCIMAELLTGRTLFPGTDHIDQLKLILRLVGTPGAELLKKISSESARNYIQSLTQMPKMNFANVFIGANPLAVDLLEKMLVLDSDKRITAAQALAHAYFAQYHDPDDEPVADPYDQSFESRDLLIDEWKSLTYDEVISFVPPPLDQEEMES

Question: How did the IC50 turn out when `CC(C)NC(=O)c1csc(-c2oc(CNC(=O)c3cccc(O)c3)nc2-c2ccc(F)cc2)n1` [Example 124] was run?
Answer: ≤ 1 µM

Question: With `CC(C)NC(=O)c1csc(-c2oc(CN3CCN(C(=O)c4ccncc4Cl)CC3)nc2-c2ccc(F)cc2)n1` [Example 393] as the compound, how does the IC50 read?
Answer: > 1 µM

Question: `CC(C)NC(=O)c1csc(-c2oc(CN3CCN(C(=O)c4cc(Cl)c(O)c(Cl)c4)CC3)nc2-c2ccc(F)cc2)n1` [Example 518] was tested. Which IC50 did it give?
Answer: > 1 µM

Question: `CC(C)NC(=O)c1csc(-c2c(-c3ccc(F)cc3)noc2CNC(=O)c2ccc(C(C)(C)C)cc2)n1` [Example 684] was tested. Which IC50 did it give?
Answer: > 1 µM

Question: With `COc1ccccc1CC(=O)NCc1onc(-c2ccc(F)cc2)c1-c1nc(C(=O)NC(C)C)cs1` [Example 657] as the compound, how does the IC50 read?
Answer: > 1 µM

Question: For `CC(C)NC(=O)n1ccc(-c2c(-c3ccc(F)cc3)noc2CN(C)C)n1` [Example 25, 3-|5-Dimethylaminomethyl-3-(4-fluoro-phenyl)-isoxazol-4-yl|-pyrazole-1-carboxylic acid isopropylamide], which IC50 is on record?
Answer: ≤ 1 µM

Question: With `CC(C)NC(=O)c1csc(-c2c(-c3ccc(F)cc3)noc2CNC(=O)c2ccc([N+](=O)[O-])c(O)c2)n1` [Example 707] as the compound, how does the IC50 read?
Answer: > 1 µM

Question: How did the IC50 turn out when `Cc1cccc(C(=O)NCc2nc(-c3ccc(F)cc3)c(-c3nc(C(=O)NC(C)C)cs3)o2)c1O` [Example 142] was run?
Answer: > 1 µM

Question: Which IC50 does the source give for `CC(C)NC(=O)c1csc(-c2oc(CNC(=O)C3CCCO3)nc2-c2ccc(F)cc2)n1` (stereo not drawn) [Example 109] here?
Answer: ≤ 1 µM

Question: `COCCNC(=O)c1csc(-c2sc(C)nc2-c2ccc(F)cc2)n1` [Example 53, 4′-(4-Fluoro-phenyl)-2′-methyl-|2,5′|bithiazolyl-4-carboxylic acid (2-methoxy-ethyl)-amide] was tested. Which IC50 did it give?
Answer: ≤ 1 µM

Question: With `CC(C)NC(=O)c1csc(-c2oc(CN3CCN(C(=O)/C=C/c4cccc(O)c4)CC3)nc2-c2ccc(F)cc2)n1` [Example 405] as the compound, how does the IC50 read?
Answer: > 1 µM

Question: `CC(C)NC(=O)c1csc(-c2oc(CN3CCN(C(=O)c4cc([N+](=O)[O-])ccc4O)CC3)nc2-c2ccc(F)cc2)n1` [Example 471] was tested. Which IC50 did it give?
Answer: ≤ 1 µM

Question: For `CC(C)Cc1ccc(C(C)C(=O)NCc2nc(-c3ccc(F)cc3)c(-c3nc(C(=O)NC(C)C)cs3)o2)cc1` (stereo not drawn) [Example 280], which IC50 is on record?
Answer: > 1 µM

Question: How did the IC50 turn out when `CC(C)NC(=O)c1csc(-c2c(-c3ccc(F)cc3)noc2CNC(=O)c2cccc(Br)n2)n1` [Example 751] was run?
Answer: > 1 µM

Question: With `CC(C)NC(=O)c1csc(-c2oc(CNC(=O)c3ccc(Cl)nc3)nc2-c2ccc(F)cc2)n1` [Example 152] as the compound, how does the IC50 read?
Answer: ≤ 1 µM

Question: Which IC50 does the source give for `CC(C)NC(=O)c1csc(-c2oc(CN)nc2-c2ccc(F)cc2)n1` [Example 98] here?
Answer: > 1 µM

Question: How did the IC50 turn out when `CC(C)NC(=O)c1csc(-c2oc(CN3CCN(C(=O)c4cc(F)c(F)cc4Cl)CC3)nc2-c2ccc(F)cc2)n1` [Example 495] was run?
Answer: > 1 µM

Question: For `CC(C)NC(=O)c1csc(-c2oc(CNC(=O)c3cc4ccccc4cc3O)nc2-c2ccc(F)cc2)n1` [Example 244], which IC50 is on record?
Answer: > 1 µM

Question: For `CC(C)NC(=O)c1csc(-c2oc(CN3CCN(C(=O)c4cc5ccccc5o4)CC3)nc2-c2ccc(F)cc2)n1` [Example 400], which IC50 is on record?
Answer: > 1 µM

Question: With `Cc1ccc(SCC(=O)NCc2nc(-c3ccc(F)cc3)c(-c3nc(C(=O)NC(C)C)cs3)o2)cc1` [Example 229] as the compound, how does the IC50 read?
Answer: > 1 µM

Question: `Cc1cc(Cl)ccc1-c1noc(C)c1-c1ccn(C(=O)NC(C)C)n1` [Example 24, 3-|3-(4-Chloro-2-methyl-phenyl)-5-methyl-isoxazol-4-yl|-pyrazole-1-carboxylic acid isopropylamide] was tested. Which IC50 did it give?
Answer: > 1 µM

Question: For `Cc1cc(C(=O)NCc2onc(-c3ccc(F)cc3)c2-c2nc(C(=O)NC(C)C)cs2)cc(Cl)n1` [Example 667], which IC50 is on record?
Answer: > 1 µM

same assay, conditions: p38α kinase; Table 1 Biological Activity

Question: Which IC50 does the source give for `Cc1nc(-c2ccc(F)cc2)c(-c2nc(C(=O)N(CCO)Cc3ccccc3)cs2)s1` [Example 1884] here?
Answer: > 1 µM

Question: Which IC50 does the source give for `CC(C)NC(=O)c1csc(-c2c(-c3ccc(F)cc3)noc2CNc2ccc(OC(F)(F)F)cc2)n1` [Example 1686] here?
Answer: > 1 µM

Question: How did the IC50 turn out when `CC(C)NC(=O)c1csc(-c2c(-c3ccc(F)cc3)n[nH]c2C2CCN(C(=O)[C@H](C)O)CC2)n1` [Example 2165, 2-{3-(4-Fluoro-phenyl)-5-|1-(2-hydroxy-propionyl)-piperidin-4-yl|-1H-pyrazol-4-yl}-thiazole-4-carboxylic acid isopropylamide] was run?
Answer: ≤ 1 µM

Question: `Cc1ccc(O)c(C(=O)N2CCC(c3[nH]nc(-c4ccc(F)cc4)c3-c3nc(C(=O)NC(C)C)cs3)CC2)c1` [Example 859] was tested. Which IC50 did it give?
Answer: > 1 µM

Question: `Cc1nc(-c2ccc(F)cc2)c(-c2nc(C(=O)N3CCCCC3CCO)cs2)s1` (stereo not drawn) [Example 1873] was tested. Which IC50 did it give?
Answer: > 1 µM

Question: How did the IC50 turn out when `Cc1nc(-c2ccc(F)cc2)c(-c2nc(C(=O)N(CCN(C)C)Cc3ccccc3)cs2)s1` [Example 1903] was run?
Answer: > 1 µM

Question: Which IC50 does the source give for `COc1ccccc1CCNCc1nc(-c2ccc(F)cc2)c(-c2nc(C(=O)NC(C)C)cs2)o1` [Example 1146] here?
Answer: > 1 µM

Question: For `CC(C)NC(=O)c1csc(-c2c(-c3ccc(F)cc3)n[nH]c2C2CCN(C(=O)CC3Cc4ccccc4C3)CC2)n1` [Example 917], which IC50 is on record?
Answer: > 1 µM

Question: For `CC(C)NC(=O)c1csc(-c2oc(CNCCCCO)nc2-c2ccc(F)cc2)n1` [Example 1075], which IC50 is on record?
Answer: > 1 µM

Question: How did the IC50 turn out when `COC[C@@H]1CCCN1C(=O)c1csc(-c2sc(C)nc2-c2ccc(F)cc2)n1` [Example 1862] was run?
Answer: ≤ 1 µM

Question: With `CC(C)NC(=O)c1csc(-c2c(-c3ccc(F)cc3)noc2CN(C)CCc2ccccn2)n1` [Example 1554] as the compound, how does the IC50 read?
Answer: ≤ 1 µM

Question: How did the IC50 turn out when `COc1ccc(C(=O)CNC(=O)c2csc(-c3sc(C)nc3-c3ccc(F)cc3)n2)cc1` [Example 1829] was run?
Answer: > 1 µM

Question: Which IC50 does the source give for `Cc1nc(-c2ccc(F)cc2)c(-c2nc(C(=O)N3CCCC4CCCCC43)cs2)s1` (stereo not drawn) [Example 1880] here?
Answer: ≤ 1 µM

Question: With `CC(C)NC(=O)c1csc(-c2c(-c3ccc(F)cc3)noc2CNCc2ccco2)n1` [Example 1407] as the compound, how does the IC50 read?
Answer: > 1 µM

Question: For `CC(C)NC(=O)c1csc(-c2c(-c3ccc(F)cc3)n[nH]c2C2CCN(C(=O)c3ccc4cc(O)ccc4c3)CC2)n1` [Example 956], which IC50 is on record?
Answer: > 1 µM

Question: Which IC50 does the source give for `CC(C)NC(=O)c1csc(-c2c(-c3ccc(F)cc3)noc2CNCc2ccccn2)n1` [Example 1417] here?
Answer: > 1 µM

Question: For `CC(C)NC(=O)c1csc(-c2c(-c3ccc(F)cc3)n[nH]c2C2CCN(C(=O)c3ccccc3Cc3ccccc3)CC2)n1` [Example 1001], which IC50 is on record?
Answer: > 1 µM

Question: With `Cc1nc(-c2ccc(F)cc2)c(-c2nc(C(=O)NC(C)Cc3ccncc3)cs2)s1` (stereo not drawn) [Example 1776] as the compound, how does the IC50 read?
Answer: > 1 µM

Question: With `COc1ccc(CNC(=O)c2csc(-c3sc(C)nc3-c3ccc(F)cc3)n2)cc1O` [Example 1825] as the compound, how does the IC50 read?
Answer: ≤ 1 µM

Question: How did the IC50 turn out when `CC(C)NC(=O)c1csc(-c2c(-c3ccc(F)cc3)n[nH]c2C2CCN(C(=O)c3ccc(Oc4cccc(O)c4)cc3)CC2)n1` [Example 1026] was run?
Answer: > 1 µM

Question: For `CC(C)NC(=O)c1csc(-c2oc(CN3CCC(N(C)C)C3)nc2-c2ccc(F)cc2)n1` (stereo not drawn) [Example 1209], which IC50 is on record?
Answer: > 1 µM

Question: Which IC50 does the source give for `Cc1nc(-c2ccc(F)cc2)c(-c2nc(C(=O)Nc3cnc4ccccc4c3)cs2)s1` [Example 1994] here?
Answer: ≤ 1 µM

Question: Which IC50 does the source give for `CC(C)NC(=O)c1csc(-c2c(-c3ccc(F)cc3)noc2CNCc2cccnc2)n1` [Example 1416] here?
Answer: > 1 µM

Question: Which IC50 does the source give for `Cc1nc(-c2ccc(F)cc2)c(-c2nc(C(=O)NCCCN3CCCC3=O)cs2)s1` [Example 1788] here?
Answer: ≤ 1 µM

Question: For `CC(C)NC(=O)c1csc(-c2oc(CN3CCN(c4ccc(C(F)(F)F)cn4)CC3)nc2-c2ccc(F)cc2)n1` [Example 1300], which IC50 is on record?
Answer: > 1 µM

Question: For `Cc1nc(-c2ccc(F)cc2)c(-c2nc(C(=O)NCCN3CCOCC3)cs2)s1` [Example 1765], which IC50 is on record?
Answer: > 1 µM

Question: For `CC(C)NC(=O)c1csc(-c2c(-c3ccc(F)cc3)noc2CN2CCC(O)(c3ccc(Cl)cc3)CC2)n1` [Example 1615], which IC50 is on record?
Answer: > 1 µM

Question: With `Cc1nc(-c2ccc(F)cc2)c(-c2nc(C(=O)N3CCN(c4ccc(Cl)cc4)CC3)cs2)s1` [Example 1925] as the compound, how does the IC50 read?
Answer: > 1 µM

Question: For `CC(C)NC(=O)c1ccn(-c2c(-c3ccc(F)cc3)noc2C2CCNCC2)n1` [Example 2188, 1-|3-(4-Fluoro-phenyl)-5-piperidin-4-yl-isoxazol-4-yl|-1H-pyrazole-3-carboxylic acid isopropylamide], which IC50 is on record?
Answer: > 1 µM

Question: With `CNCc1nc(-c2ccc(F)cc2)c(-c2nc(C(=O)NC(C)C)cs2)o1` [Example 1049] as the compound, how does the IC50 read?
Answer: > 1 µM

Question: `CC(C)NC(=O)c1csc(-c2c(-c3ccc(F)cc3)noc2CNCc2ccc(Cl)c(Cl)c2)n1` [Example 1495] was tested. Which IC50 did it give?
Answer: > 1 µM

Question: For `Cc1nc(-c2ccc(F)cc2)c(-c2nc(C(=O)NCCc3cccc(F)c3)cs2)s1` [Example 1784], which IC50 is on record?
Answer: ≤ 1 µM

Question: Which IC50 does the source give for `CC(C)NCc1onc(-c2ccc(F)cc2)c1-c1nc(C(=O)NC(C)C)cs1` [Example 1387] here?
Answer: > 1 µM

Question: For `CC(C)NC(=O)c1csc(-c2c(-c3ccc(F)cc3)noc2CNN2CCOCC2)n1` [Example 1413], which IC50 is on record?
Answer: > 1 µM

Question: With `Cc1nc(-c2ccc(F)cc2)c(-c2nc(C(=O)N3CCC(N(C)C)C3)cs2)s1` (stereo not drawn) [Example 1859] as the compound, how does the IC50 read?
Answer: > 1 µM

Question: Which IC50 does the source give for `CCN(CC)CCCC(C)NC(=O)c1csc(-c2c(-c3ccc(F)cc3)n[nH]c2C2CCNCC2)n1` (stereo not drawn) [Example 2130] here?
Answer: > 1 µM

Question: How did the IC50 turn out when `O=C(NC1CCCCC1)c1csc(-c2c(-c3ccc(F)cc3)ncn2C2CCNCC2)n1` [Example 2191, 2-|5-(4-Fluoro-phenyl)-3-piperidin-4-yl-3H-imidazol-4-yl|-thiazole-4-carboxylic acid cyclohexylamide] was run?
Answer: ≤ 1 µM

Question: For `Cc1nc(-c2ccc(F)cc2)c(-c2nc(C(=O)NC3CCCc4ccccc43)cs2)s1` (stereo not drawn) [Example 1996], which IC50 is on record?
Answer: > 1 µM

Question: Which IC50 does the source give for `CC(C)NC(=O)c1csc(-c2c(-c3ccc(F)cc3)noc2CN[C@@H](C)c2ccccc2)n1` [Example 1428] here?
Answer: > 1 µM

Question: How did the IC50 turn out when `CC1CCN(Cc2nc(-c3ccc(F)cc3)c(-c3nc(C(=O)NC(C)C)cs3)o2)CC1` [Example 1198] was run?
Answer: > 1 µM

Question: How did the IC50 turn out when `Cc1ccc(NC(=O)c2csc(-c3sc(C)nc3-c3ccc(F)cc3)n2)c(C)c1` [Example 1970] was run?
Answer: > 1 µM

Question: Which IC50 does the source give for `Cc1ccc(CCNC(=O)c2csc(-c3sc(C)nc3-c3ccc(F)cc3)n2)cc1` [Example 1768] here?
Answer: > 1 µM

Question: `CC(C)NC(=O)c1csc(-c2oc(CNCCN(C(C)C)C(C)C)nc2-c2ccc(F)cc2)n1` [Example 1138] was tested. Which IC50 did it give?
Answer: > 1 µM

Question: How did the IC50 turn out when `Cc1nc(-c2ccc(F)cc2)c(-c2nc(C(=O)Nc3ccccc3C(C)(C)C)cs2)s1` [Example 1997] was run?
Answer: > 1 µM

From patent US20060252807A1, “Novel ortho-terphenyl inhibitors of p38 kinase and methods of treating inflammatory disorders” (Kalypsys, Inc., priority 2005, published 2006)
